Source: patent publication US12655173B2, “Hybrid amide derivatives of amphotericin B” (priority 2020, dated 2026)
≈ marks a conversion by molar mass, not a printed value.

What was measured:
A. thermomutatus = test: MIC against moulds; assay type: cell-based; conditions: for MIC A. thermomutatus: 6 isolates, AmB (AmBisome)
Solubility in D5W = conditions: solubility in D5W
CEA10 (clinical isolate) = test: MIC against azole and echinocandin resistant fungal strains (CLSI); assay type: cell-based, A. funigatus; conditions: read-out: MIC CEA10
Procedure: This experiment was performed following the standard CLSI protocol.

Question: With `CC1C=CC=CC=CC=CC=CC=CC=CC(OC2OC(C)C(O)C(N)C2O)CC2OC(O)(CC(O)CC(O)C(O)CCC(O)CC(O)CC(=O)OC(C)C(C)C1O)CC(O)C2C(=O)NC(CO)CO` (stereo not drawn) [Compound 1] as the molecule, how does the “MIC A. thermomutatus” value (A. thermomutatus) read?
Answer: 1.45 µM (≈ 1.45 µg/mL)

Question: What about the “Fold of Increase w.r.t. AmB” value (Solubility in D5W) of the same molecule?
Answer: >314

Question: With `C[C@@H](c1ncncc1F)[C@](O)(Cn1cncn1)c1ccc(F)cc1F` [Voriconazole] as the molecule, how does the MIC (CEA10 (clinical isolate)) read?
Answer: 1.43 µM (≈ 0.5 µg/mL)

Question: What does the source list for `CC1C=CC=CC=CC=CC=CC=CC=CC(OC2OC(C)C(O)C(N)C2O)CC2OC(O)(CC(O)CC(O)C(O)CCC(O)CC(O)CC(=O)OC(C)C(C)C1O)CC(O)C2C(=O)NC(CO)(CO)CO` (stereo not drawn) [Compound 2]?
Answer: MIC A. thermomutatus (A. thermomutatus): 2.1 µM (≈ 2.16 µg/mL); Fold of Increase w.r.t. AmB (Solubility in D5W): 15.9

Question: For `C[C@@H]1[C@H](O)[C@@H](C)/C=C/C=C/C=C/C=C/C=C/C=C/C=C/[C@H](OC2O[C@H](C)[C@@H](O)[C@H](N)[C@@H]2O)C[C@@H]2O[C@](O)(C[C@@H](O)C[C@@H](O)[C@H](O)CC[C@@H](O)C[C@@H](O)CC(=O)O[C@H]1C)C[C@H](O)[C@H]2C(=O)O` (stereo partly drawn) [AmB, Amphotericin B], which MIC (A. thermomutatus; Aspergillus thermomutatus, read-out: MIC A. thermomutatus) is on record?
Answer: 0.6 µM (≈ 0.554 µg/mL)
